From ChEMBL document CHEMBL6115031, “Structure-Based Optimization of Moracin M as Potent and Selective PDE4 Inhibitors with Antipsoriasis Effects” (J Med Chem, 2025)
The source made the active and inactive calls. The rule behind the calls is not given here.

Legend:
[1] = target: T1, 3',5'-cyclic-AMP phosphodiesterase 4D (Homo sapiens, UniProt Q08499); assay: Inhibition of human PDE4D2 (86 to 413 residues) extracted from Escherichia coli BL21 cells using 3H-cAMP/3H-cGMP as substrate preincubated with compound for 15 mins followed by substrate addition by liquid scintillation counter
[2] = Metabolic stability in rat liver microsomes assessed as half life at 1 uM incubated upto 60 mins in presence of NADPH by LC-MS/MS analysis; type: ADME, Microsome
[3] = target: T1, 3',5'-cyclic-AMP phosphodiesterase 4D; assay: Inhibition of PDE4D (unknown origin)
[4] = test system: HaCaT; assay: Anti-psoriasis activity in M5-stimulated human HaCaT cells assessed as restoration of cAMP level at 20 uM incubated for 2 hrs by competitive ELISA; type: functional, cell-based
[5] = test system: HaCaT; assay: Inhibition of CREB phosphorylation in human HaCaT cells assessed as increase in pCREB/CREB ratio at 20 uM incubated for 2 hrs by Western blotting analysis; type: cell-based
[6] = test system: Mus musculus; assay: Anti-inflammatory activity in IMQ-induced psoriasis in female BALB/c mouse assessed as reduction in TNF-alpha mRNA level at 20 mg/kg administered topically as 0.3 % ointment pretreated with IMQ for 6 hrs followed by compound addition once daily for 7 days by q-PCR analysis; type: functional, organism-based; conditions: time 7.0 day
[7] = test system: Mus musculus; assay: Anti-inflammatory activity in IMQ-induced psoriasis in female BALB/c mouse assessed as reduction in IL-1beta mRNA level at 20 mg/kg administered topically as 0.3 % ointment pretreated with IMQ for 6 hrs followed by compound addition once daily for 7 days by q-PCR analysis; type: functional, organism-based; conditions: time 7.0 day
[8] = test system: Mus musculus; assay: Anti-inflammatory activity in IMQ-induced psoriasis in female BALB/c mouse assessed as reduction in IL-6 mRNA level at 20 mg/kg administered topically as 0.3 % ointment pretreated with IMQ for 6 hrs followed by compound addition once daily for 7 days by q-PCR analysis; type: functional, organism-based; conditions: time 7.0 day
[9] = test system: Mus musculus; assay: Anti-inflammatory activity in IMQ-induced psoriasis in female BALB/c mouse assessed as reduction in IL-17 mRNA level at 20 mg/kg administered topically as 0.3 % ointment pretreated with IMQ for 6 hrs followed by compound addition once daily for 7 days by q-PCR analysis; type: functional, organism-based; conditions: time 7.0 day
[10] = test system: Mus musculus; assay: Anti-inflammatory activity in IMQ-induced psoriasis in female BALB/c mouse assessed as reduction in CXCL-2 mRNA level at 20 mg/kg administered topically as 0.3 % ointment pretreated with IMQ for 6 hrs followed by compound addition once daily for 7 days by q-PCR analysis; type: functional, organism-based; conditions: time 7.0 day
[11] = test system: Mus musculus; assay: Anti-inflammatory activity in IMQ-induced psoriasis in female BALB/c mouse assessed as reduction in CCL-20 mRNA level at 20 mg/kg administered topically as 0.3 % ointment pretreated with IMQ for 6 hrs followed by compound addition once daily for 7 days by q-PCR analysis; type: functional, organism-based; conditions: time 7.0 day
[12] = test system: Mus musculus; assay: Anti-psoriasis effect in IMQ-induced female BALB/c mouse model assessed as reduction in spinous layer thickness at 20 mg/kg administered topically as 0.3 % ointment pretreated with IMQ for 6 hrs followed by compound addition once daily for 7 days by H and E staining based analysis; type: functional, organism-based; conditions: time 7.0 day
[13] = test system: Mus musculus; assay: Anti-psoriasis effect in IMQ-induced female BALB/c mouse model assessed as reduction in abnormal rete ridges at 20 mg/kg administered topically as 0.3 % ointment pretreated with IMQ for 6 hrs followed by compound addition once daily for 7 days by H and E staining based analysis; type: functional, organism-based; conditions: time 7.0 day
[14] = test system: Mus musculus; assay: Anti-psoriasis effect in IMQ-induced female BALB/c mouse model assessed as reduction in fibroblast proliferation at 20 mg/kg administered topically as 0.3 % ointment pretreated with IMQ for 6 hrs followed by compound addition once daily for 7 days by H and E staining based analysis; type: functional, organism-based; conditions: time 7.0 day
[15] = test system: Mus musculus; assay: Anti-psoriasis effect in IMQ-induced female BALB/c mouse model assessed as reduced bleeding in dermal papilla layers at 20 mg/kg administered topically as 0.3 % ointment pretreated with IMQ for 6 hrs followed by compound addition once daily for 7 days by H and E staining based analysis; type: functional, organism-based; conditions: time 7.0 day

T1 sequence (Q08499 whole entry, the tested form may be a part): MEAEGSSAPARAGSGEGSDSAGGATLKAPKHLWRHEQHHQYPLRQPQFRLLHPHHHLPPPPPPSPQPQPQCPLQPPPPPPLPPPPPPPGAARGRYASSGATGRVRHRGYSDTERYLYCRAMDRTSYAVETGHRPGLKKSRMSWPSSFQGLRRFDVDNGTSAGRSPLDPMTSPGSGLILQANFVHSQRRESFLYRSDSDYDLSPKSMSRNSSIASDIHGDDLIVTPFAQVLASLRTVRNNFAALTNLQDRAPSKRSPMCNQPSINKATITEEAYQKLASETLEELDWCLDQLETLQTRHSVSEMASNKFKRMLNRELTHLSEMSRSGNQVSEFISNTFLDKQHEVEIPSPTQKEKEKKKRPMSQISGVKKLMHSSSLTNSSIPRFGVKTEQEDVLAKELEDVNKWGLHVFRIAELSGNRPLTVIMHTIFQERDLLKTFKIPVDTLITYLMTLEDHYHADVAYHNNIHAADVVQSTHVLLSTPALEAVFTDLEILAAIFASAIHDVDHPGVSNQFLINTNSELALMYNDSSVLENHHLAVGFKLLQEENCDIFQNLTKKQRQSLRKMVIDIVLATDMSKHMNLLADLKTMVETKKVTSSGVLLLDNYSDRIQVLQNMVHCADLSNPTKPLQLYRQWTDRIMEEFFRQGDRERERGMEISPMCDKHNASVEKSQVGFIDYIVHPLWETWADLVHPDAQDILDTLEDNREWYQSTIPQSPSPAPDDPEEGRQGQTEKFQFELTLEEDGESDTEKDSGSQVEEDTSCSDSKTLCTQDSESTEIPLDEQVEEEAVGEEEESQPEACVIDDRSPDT

For `COC(=O)CCCCOc1c(O)ccc2cc(-c3ccc(OC(F)F)c(OCC4CC4)c3)oc12`, the IC50 [1] was 23.5 nM and the half-life at 1 µM [2] was 3.6 min.
Compound `COC(=O)[C@@H]1C[C@H](Oc2c(O)ccc3cc(-c4ccc(OC(F)F)c(OCC5CC5)c4)oc23)CN1` has an IC50 [1] of 10.9 nM and a half-life at 1 µM [2] of 4 min.
With `O=C(O)[C@@H]1C[C@H](Oc2c(O)ccc3cc(-c4ccc(OC(F)F)c(OCC5CC5)c4)oc23)CN1` the IC50 [1] was greater than 100 nM.
Compound `COC(=O)[C@@H](N)CCOc1c(O)ccc2cc(-c3ccc(OC(F)F)c(OCC4CC4)c3)oc12` has an IC50 [1] of 29.5 nM and a half-life at 1 µM [2] of 4.8 min.
In the case of `O=C(O)[C@@H]1C[C@@H](Oc2c(O)ccc3cc(-c4ccc(OC(F)F)c(OCC5CC5)c4)oc23)CN1`, the IC50 [1] is reported as greater than 100 nM.
Compound `COC(=O)CCCOc1c(O)ccc2cc(-c3ccc(OC(F)F)c(OCC4CC4)c3)oc12` has an IC50 [1] of 14.4 nM and a half-life at 1 µM [2] of 0.7 min.
Compound `COC(=O)COc1c(O)ccc2cc(-c3ccc(OC(F)F)c(OCC4CC4)c3)oc12` has an IC50 [1] of 39.1 nM.
`COC(=O)[C@H]1C[C@H](Oc2c(O)ccc3cc(-c4ccc(OC(F)F)c(OCC5CC5)c4)oc23)CN1` showed an IC50 [1] of 30 nM and a half-life at 1 µM [2] of 3.7 min.
Work on `O=C(O)CCCOc1c(O)ccc2cc(-c3ccc(OC(F)F)c(OCC4CC4)c3)oc12` yielded an IC50 [1] of 22 nM and a half-life at 1 µM [2] of 1.2 min.
Compound `Oc1ccc2cc(-c3ccc(OC(F)F)c(OCC4CC4)c3)oc2c1O` has an IC50 [1] of 421 nM, a half-life at 1 µM [2] of 21 min and an IC50 [3] of 421 nM.
Compound `CCOC(=O)CCCOc1c(O)ccc2cc(-c3ccc(OC(F)F)c(OCC4CC4)c3)oc12` has an IC50 [1] of 22.7 nM.
With `O=C(Nc1c(Cl)cncc1Cl)c1ccc(OC(F)F)c(OCC2CC2)c1` the Activity [4] was “Active”, the inhibition [5] was “Active” and the Activity [6] was “Active”. For the same compound, the Activity [7] was “Active”, the Activity [8] was “Active” and the Activity [9] was “Active”. For the same compound, the Activity [10] was “Active”, the Activity [11] was “Active” and the Activity [12] was “Active”. For the same compound, the Activity [13] was “Active”, the Activity [14] was “Active” and the Activity [15] was “Active”.
In the case of `N[C@@H](CCOc1c(O)ccc2cc(-c3ccc(OC(F)F)c(OCC4CC4)c3)oc12)C(=O)O`, the IC50 [1] is reported as greater than 100 nM.
With `O=C(O)[C@H]1C[C@@H](Oc2c(O)ccc3cc(-c4ccc(OC(F)F)c(OCC5CC5)c4)oc23)CN1` the IC50 [1] was greater than 100 nM.
Work on `O=C(O)[C@H]1C[C@H](Oc2c(O)ccc3cc(-c4ccc(OC(F)F)c(OCC5CC5)c4)oc23)CN1` yielded an IC50 [1] greater than 100 nM.
For `O=C(O)CCCCOc1c(O)ccc2cc(-c3ccc(OC(F)F)c(OCC4CC4)c3)oc12`, the IC50 [1] was 20.6 nM and the half-life at 1 µM [2] was 92.4 min.
With `O=C(O)COc1c(O)ccc2cc(-c3ccc(OC(F)F)c(OCC4CC4)c3)oc12` the IC50 [1] was 23.7 nM.
Work on `COC(=O)[C@@H]1C[C@@H](Oc2c(O)ccc3cc(-c4ccc(OC(F)F)c(OCC5CC5)c4)oc23)CN1` yielded an IC50 [1] of 43.7 nM and a half-life at 1 µM [2] of 3.4 min.
